The source of these data is ChEMBL document CHEMBL1132681, “Inhibition of human cytomegalovirus protease by enedione derivatives of thieno[2,3-d]oxazinones through a novel dual acylation/alkylation mechanism” (Bioorg Med Chem Lett, 1999).

What is called IC50 is the concentration that gives 50% inhibition. Lower therefore signals inhibition by little substance.

Assay [1] concerns the target T1, Capsid scaffolding protein (Human cytomegalovirus (strain AD169) (HHV-5) (Human herpesvirus 5), UniProt P16753).
T1 sequence (P16753 whole entry): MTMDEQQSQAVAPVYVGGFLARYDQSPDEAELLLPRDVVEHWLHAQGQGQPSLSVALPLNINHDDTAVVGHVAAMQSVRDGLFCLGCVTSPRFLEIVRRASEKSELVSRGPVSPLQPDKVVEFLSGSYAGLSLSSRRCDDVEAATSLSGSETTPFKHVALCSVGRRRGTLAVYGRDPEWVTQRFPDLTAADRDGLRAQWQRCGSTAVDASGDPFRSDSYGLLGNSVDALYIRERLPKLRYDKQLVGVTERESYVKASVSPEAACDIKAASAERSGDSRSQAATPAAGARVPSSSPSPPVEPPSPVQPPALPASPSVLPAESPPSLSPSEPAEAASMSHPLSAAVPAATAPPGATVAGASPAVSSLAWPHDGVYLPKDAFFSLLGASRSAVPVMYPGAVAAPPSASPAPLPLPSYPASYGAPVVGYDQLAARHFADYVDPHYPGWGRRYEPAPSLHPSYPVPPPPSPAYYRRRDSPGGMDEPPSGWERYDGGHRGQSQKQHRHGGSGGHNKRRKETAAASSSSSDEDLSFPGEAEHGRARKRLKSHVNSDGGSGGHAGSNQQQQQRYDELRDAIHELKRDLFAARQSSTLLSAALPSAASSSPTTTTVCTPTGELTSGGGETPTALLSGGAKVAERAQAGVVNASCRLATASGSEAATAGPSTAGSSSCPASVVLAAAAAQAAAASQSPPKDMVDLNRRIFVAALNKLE
Nature of the assay: Inhibitory activity against cytomegalovirus protease (CMV). It counts as functional.

Assay [2] has as its target T2, Capsid scaffolding protein (Human herpesvirus 2 (strain HG52) (HHV-2) (Human herpes simplex virus2), UniProt P89449).
T2 sequence (P89449 whole entry): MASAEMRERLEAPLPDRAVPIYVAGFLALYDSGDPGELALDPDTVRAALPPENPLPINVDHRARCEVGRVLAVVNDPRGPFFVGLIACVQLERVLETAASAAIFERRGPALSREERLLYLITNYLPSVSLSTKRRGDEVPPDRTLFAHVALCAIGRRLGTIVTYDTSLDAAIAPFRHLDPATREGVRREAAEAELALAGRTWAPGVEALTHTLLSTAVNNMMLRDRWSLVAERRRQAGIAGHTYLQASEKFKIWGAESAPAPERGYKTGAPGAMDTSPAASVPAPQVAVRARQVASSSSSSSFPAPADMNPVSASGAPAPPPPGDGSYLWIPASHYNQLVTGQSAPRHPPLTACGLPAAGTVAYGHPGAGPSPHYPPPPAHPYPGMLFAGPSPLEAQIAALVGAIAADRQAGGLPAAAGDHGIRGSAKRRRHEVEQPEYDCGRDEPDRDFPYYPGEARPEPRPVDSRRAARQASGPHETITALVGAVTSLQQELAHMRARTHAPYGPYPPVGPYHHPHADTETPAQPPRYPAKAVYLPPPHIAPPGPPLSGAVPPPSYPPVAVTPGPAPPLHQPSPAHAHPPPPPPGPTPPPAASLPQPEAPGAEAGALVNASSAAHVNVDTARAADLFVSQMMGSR
Briefly: Inhibitory activity against herpes simplex virus protease (HSV-2). It counts as functional, Human alphaherpesvirus 2.

A further assay has as its system MRC5. Nature of the assay: Compound was tested for cytotoxicity in MRC-5 cells using XTT assay. It counts as functional. The conditions noted are these: Homo sapiens, read-out: TC50 (the source's name).

On to `CC(=O)/C=C/C(=O)N[C@@H](C)c1nc2scc(C)c2c(=O)o1`, for which the IC50 in assay [1] stood at 370 nM; in assay [2], 790 nM. Moreover, in the assay with MRC5, the CC50 came to 11000 nM.

Turning to `Cc1csc2nc([C@H](C)NC(=O)CCC(=O)c3cccs3)oc(=O)c12`, the IC50 in assay [1] stood at 19000 nM; in assay [2] it was 4700 nM.

For the compound `Cc1csc2nc([C@H](C)NC(=O)/C=C/C(=O)c3ccc(Cl)cc3)oc(=O)c12`, the values for the 50% inhibitory concentration (IC50) in assay [1] and in assay [2] were 60 nM and 15000 nM, respectively.

As to `COc1cccc(C(=O)/C=C/C(=O)N[C@@H](C)c2nc3scc(C)c3c(=O)o2)c1`, the results for the IC50 in assay [1] and in assay [2] were 29 nM and 680 nM, respectively.

On to `CCOc1ccc(C(=O)/C=C/C(=O)N[C@@H](C)c2nc3scc(C)c3c(=O)o2)cc1`, for which the IC50 in assay [1] turned out to be 260 nM; in assay [2] it was 16000 nM.

On to `Cc1csc2nc([C@H](C)NC(=O)/C=C/C(=O)c3cccc(C#N)c3)oc(=O)c12`, for which the IC50 came out at 41 nM in assay [1] and 2000 nM in assay [2].

In the case of `Cc1csc2nc([C@H](C)NC(=O)/C=C/C(=O)c3ccccc3)oc(=O)c12`, the IC50 was 30 nM in assay [1] and 2700 nM in assay [2]. In the assay on MRC5, the CC50 was 14000 nM.

In the case of `Cc1csc2nc([C@H](C)NC(=O)/C=C/C(=O)c3cccc([N+](=O)[O-])c3)oc(=O)c12`, the figures for the IC50 in assay [1] and in assay [2] were 31 nM and 3000 nM, respectively.

As for `Cc1csc2nc([C@H](C)NC(=O)/C=C/C(=O)c3cccs3)oc(=O)c12`, the IC50 was 29 nM in assay [1] and 4600 nM in assay [2]. Further, the CC50 in the assay with MRC5 was 2000 nM.

For `Cc1csc2nc([C@H](C)NC(=O)/C=C/C(=O)Nc3ccccc3)oc(=O)c12`, the IC50 in assay [1] came to 2300 nM; in assay [2] it was 2600 nM.

Consider `Cc1csc2nc([C@H](C)NC(=O)CCC(=O)c3ccccc3)oc(=O)c12`, for which the IC50 came to 21000 nM in assay [1] and 12000 nM in assay [2].

In the case of `Cc1csc2nc([C@H](C)NC(=O)/C=C/C(=O)c3ccccc3[N+](=O)[O-])oc(=O)c12`, the IC50 in assay [1] stood at 14 nM; in assay [2], 2200 nM.
